Values of other authors as cited in US20040063806A1, “Antimicrobial polyalphaolefin composition” (priority 2000, published 2004).
Read-outs that look alike come from different tables or passages of the source.

How the values were obtained:
[1] = system: Sarcina lutee; conditions: Sarcina lutee NCTC 196, medium BHI-A
[2] = system: Shigella dysenteriae; conditions: Shigella dysenteriae NCTC 2249, medium NA
[3] = system: Trichophyton mentsgrophytes; conditions: Trichophyton mentsgrophytes ATCC 9533, medium SMA
[4] = system: Bacteroides fragilis; conditions: Bacteroides fragilis ATCC 23745, medium M-H
[5] = system: Corynebacterium acnes; conditions: Corynebacterium acnes* ATCC 6919, medium BHI-A
[6] = system: Clostridium tetani; conditions: Clostridium tetani NCTC 9571, medium EA
[7] = system: Corynebacterium diphtherias; conditions: Corynebacterium diphtherias NCTC 3984, medium BHI-A
[8] = system: Mycobacterium tuberculosis; conditions: origin A, medium YA
[9] = system: Pseudomonas aeruginosa
[10] = system: Klebsiella oxytoca; conditions: Klebsiella oxytoca ATCC 43165, medium M-H
[11] = system: Bacillus cereus; conditions: origin A, medium NA
[12] = system: Lactobacillus fermenti; conditions: Lactobacillus fermenti ATCC 707, medium MACA
[13] = system: Microsporum canis; conditions: Microsporum canis ATCC 10214, medium SMA
[14] = system: Candida tropicalis
[15] = system: Enterococcus faecalis
[16] = system: Bacillus megatherium; conditions: origin A, medium NA
[17] = system: Brucella intermedia; conditions: origin A, medium BR.A.A.
[18] = system: Keratinomyces ajelloi; conditions: origin A, medium SMA
[19] = system: Lactobacillus delbrueckii; conditions: Lactobacillus delbrueckii ATCC 7830, medium MACA
[20] = system: Staphylococcus hyicus; conditions: Staphylococcus hyicus NCTC 7944, medium BHI-A
[21] = system: Enterobacter cloacae; conditions: Enterobacter cloacae ATCC 13047, medium M-H
[22] = system: Brucella abortus; conditions: Brucella abortus NCTC 8226, medium BR.A.A.
[23] = system: Salmonella enteritidis; conditions: origin A, medium NA
[24] = system: Vibrio eltor; conditions: Vibrio eltor NCTC 8457, medium NA
[25] = system: Enterobacter aerogenes; conditions: Enterobacter aerogenes ATCC 13048, medium M-H
[26] = system: Enterococcus faecium
[27] = system: Staphylococcus aureus
[28] = system: Streptococcus saprophyticus; conditions: Streptococcus saprophyticus ATCC 15305, medium M-H
[29] = system: Staphylococcus lactis; conditions: Staphylococcus lactis NCTC 8340, medium NA
[30] = system: Nocardia asteroides; conditions: Nocardia asteroides NCTC 6761, medium BHI-A
[31] = system: Corynebacterium minutissimum; conditions: Corynebacterium minutissimum ATCC 23348, medium BHI-A
[32] = system: Trochophyton tonsurans; conditions: origin A, medium SMA
[33] = system: Mycobacterium smegmatis; conditions: Mycobacterium smegmatis NCTC 8152, medium BHI-A
[34] = system: Klebsiella edwardsii; conditions: Klebsiella edwardsii NCTC 7242, medium NA
[35] = system: Pseudomonas fluorescencens; conditions: Pseudomonas fluorescencens NCTC 4755, medium NA
[36] = system: Staphylococcus hominis; conditions: Staphylococcus hominis ATCC 27844, medium M-H
[37] = system: Pasteurella pseudotuberculosis; conditions: origin C-G, medium NA
[38] = system: Sporosarcina urea; conditions: Sporosarcina urea ATCC 6473, medium BHI-A

In the case of `Oc1cc(Cl)ccc1Oc1ccc(Cl)cc1Cl` [IRGAGUARD B 1000, 2,4,4′-trichloro-2′-hydroxydiphenyl ether], the Microbiostatic effect [1] is listed as 3.0 ppm, the Microbiostatic effect [2] is listed as 0.1 ppm and the Microbiostatic effect [3] is listed as 1 ppm. For the same molecule, the Microbiostatic effect [4] was 2.0 ppm, the Microbiostatic effect [5] was 3.0 ppm and the Microbiostatic effect [6] was 3.0 ppm. For the same molecule, the Microbiostatic effect [7] was 3.0 ppm, the Microbiostatic effect [8] was 100.0 ppm and the Microbiostatic effect ([9]; Pseudomonad aeruginosa ATCC 12055, medium NA) was greater than 1000 ppm. The Microbiostatic effect ([9]; Pseudomonas aeruginosa NCTC 8060, medium NA) was greater than 1000 ppm, the Microbiostatic effect [10] was 1.0 ppm and the Microbiostatic effect [11] was 3.0 ppm. For the same molecule, the Microbiostatic effect [12] was 33.0 ppm, the Microbiostatic effect [13] was 3 ppm and the Microbiostatic effect ([14]; Candida tropicalis DSM 1346, medium M-H) was 10 ppm. The Microbiostatic effect ([14]; Candida tropicalis, origin A, medium SMA) was 10 ppm, the Microbiostatic effect ([15]; Enterococcus faecalis ATCC 6055, medium M-H) was 5.0 ppm and the Microbiostatic effect ([15]; Enterococcus faecalis ATCC 29212, medium M-H) was 4.0 ppm. For the same molecule, the Microbiostatic effect ([15]; Enterococcus faecalis NCTC 12201, medium M-H, Varicomycin resistant) was 5.0 ppm, the Microbiostatic effect ([15]; Enterococcus faecalis NCTC 12203, medium M-H, Varicomycin resistant) was 5.0 ppm and the Microbiostatic effect [16] was 3.0 ppm. For the same molecule, the Microbiostatic effect [17] was 0.1 ppm, the Microbiostatic effect [18] was 10 ppm and the Microbiostatic effect [19] was 33.0 ppm. For the same molecule, the Microbiostatic effect [20] was 0.03 ppm, the Microbiostatic effect [21] was 0.5 ppm and the Microbiostatic effect [22] was 0.1 ppm. The Microbiostatic effect [23] was 0.1 ppm, the Microbiostatic effect [24] was 10.0 ppm and the Microbiostatic effect [25] was 0.5 ppm. The Microbiostatic effect ([26]; Enterococcus faecium ATCC 10541, medium BHI-A) was 3.0 ppm, the Microbiostatic effect ([26]; Enterococcus faedium ATCC 6057, medium M-H) was 4.0 ppm and the Microbiostatic effect ([26]; Enterococcus faedium NCTC 8619, medium BHI-A) was 10.0 ppm. The Microbiostatic effect ([27]; Staphylococcus aureus ATCC 6538, medium NA) was 0.01 ppm, the Microbiostatic effect ([27]; Staphylococcus aureus ATCC 9144, medium M-H) was 0.05 ppm and the Microbiostatic effect ([27]; Staphylococcus aureus ATCC 13709, medium NA) was 0.01 ppm. The Microbiostatic effect ([27]; Staphylococcus aureus ATCC 29213, medium M-H) was less than 0.125 ppm, the Microbiostatic effect ([27]; Staphylococcus aureus NCTC 6571, medium NA) was 0.03 ppm and the Microbiostatic effect ([27]; Staphylococcus aureus NCTC 6966, medium NA) was 0.1 ppm. The Microbiostatic effect ([27]; Staphylococcus aureus NCTC 10443, medium M-H, Methicillin resistant) was 0.01 ppm, the Microbiostatic effect ([27]; Staphylococcus aureus NCTC 10703, medium M-H, Methicillin resistant) was 0.01 ppm and the Microbiostatic effect ([27]; Staphylococcus aureus NCTC 11150, medium M-H, Methicillin resistant) was 0.02 ppm. For the same molecule, the Microbiostatic effect ([27]; Staphylococcus aureus NCTC 11940, medium M-H, Methicillin resistant) was 0.01 ppm, the Microbiostatic effect ([27]; Staphylococcus aureus NCTC 12232, medium M-H, Methicillin resistant) was 0.01 ppm and the Microbiostatic effect ([27]; Staphylococcus aureus NCTC 12493, medium M-H, Methicillin resistant) was 0.01 ppm. The Microbiostatic effect ([27]; Staphylococcus aureus NCTC 12497, medium M-H, Methicillin resistant) was 0.01 ppm, the Microbiostatic effect [28] was 0.125 ppm and the Microbiostatic effect [29] was 3.0 ppm. The Microbiostatic effect [30] was 3.0 ppm, the Microbiostatic effect [31] was 3.0 ppm and the Microbiostatic effect [32] was 10 ppm. The Microbiostatic effect [33] was 1.0 ppm, the Microbiostatic effect [34] was 0.3 ppm and the Microbiostatic effect [35] was greater than 100 ppm. For the same molecule, the Microbiostatic effect [36] was 1.0 ppm, the Microbiostatic effect [37] was 10.0 ppm and the Microbiostatic effect [38] was 0.1 ppm.
